This note sets out measurements from PubChem BioAssay (NCI).

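Method: 48-hour compound exposure of cells in 96-well plates, five concentrations, linear interpolation of endpoints. At the GI50, growth is halved. Definition used: TGI = concentration required for complete inhibition of growth.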

What all share (experiment): NCI tumour cell line growth inhibition, 48 h
For assay [1], the system named is CCRF-CEM leukemia.
In assay [2] the test system is COLO 205 colon.
Assay [3] deals with HOP-62 NSCLC.
Assay [4] has as its system M14 melanoma.
The test system of assay [5] is NCI-H522 lung.
The test system of assay [6] is RPMI-8226 leukemia.
In assay [7] the test system is SNB-19 CNS.
Assay [8] relates to HS 578T breast.
The subject of assay [9] is MDA-MB-435.
In assay [10] the test system is NCI/ADR-RES ovarian.

On to `COCCOCOC(C)(C)[C@H](CCOC(C)=O)O[Si](c1ccccc1)(c1ccccc1)C(C)(C)C`, for which the TGI stood at 23.7 µM in [1]; 13.7 µM in assay [2]; 66.7 µM in assay [3]; 49.4 µM in [4]; 29.4 µM in assay [5]; 15.1 µM in [6]. For the same molecule, the TGI in assay [7] is above 100 µM.
For `NC(=O)C12CC3CC(CC(Br)(C3)C1)C2`, the TGI in assay [1], in [3], in [4], in [5], in assay [6] and in assay [7] was above 100 µM throughout.
Take `O=C(N/C(=C\c1cc(Cl)ccc1Cl)c1nc2ccc(Cl)cc2[nH]1)c1ccccc1`: the TGI worked out at 51.4 µM in assay [1]; 33.6 µM in [2]; 32.3 µM in assay [3]; 31.1 µM in assay [4]; 25 µM in assay [5]; 40.4 µM in assay [6]. In assay [7], this molecule had a TGI of 60.1 µM.
For the molecule `COC/N=C(/N)NC#N`, the TGI was above 100 µM in assay [1]; 39.2 µM in assay [2]; above 100 µM in assay [3]; above 100 µM in assay [4]; above 100 µM in [5]; above 100 µM in [6]. This molecule also had a TGI in assay [7] above 100 µM.
Consider `C/C(=C\Cc1cc(O)ccc1O)CCc1c(C)c(O)c(O)c(C=O)c1C`, for which the TGI in [1] was 9.6 µM; in assay [2], 34.4 µM; in [4] it was 77.3 µM; in [5], 21.4 µM; in assay [6] it was 80.3 µM; in [7], above 100 µM.
For `COc1ccc(Cc2nc3ccccc3s2)cc1OC`, the TGI in assay [1] came to 44.7 µM; in assay [2], 27.7 µM; in [3], 93.5 µM; in assay [4], 31.6 µM; in assay [5] it was 32.2 µM; in assay [6], 70.9 µM. Moreover, the TGI in [7] was 99.9 µM.
As to `COc1cc(/C=C\c2ccncc2)cc(OC)c1OC`, the TGI in [1], in [2], in assay [3], in [4], in assay [5] and in assay [6] was above 100 µM each time. For the same molecule, in assay [7], the TGI was above 100 µM.
Take `COC(=O)/C(C#N)=C1\CCc2ccccc21`: the TGI in assay [1], in assay [2], in [4], in assay [5], in [6] and in assay [7] was above 100 µM each time.
For the molecule `Cc1cc(C)nc(NS(=O)(=O)c2ccc(NC(=O)c3cccn4c(=O)c5ccccc5nc34)cc2)n1`, the TGI in assay [1] is above 100 µM; in [2], above 100 µM; in assay [3], above 100 µM; in [4], above 100 µM; in [5], 42.6 µM; in assay [7], above 100 µM.
On to `COC(=O)C#CCC1CCCC1C1SCCS1` (configuration not stated), for which the TGI was 72.3 µM in assay [1]; above 100 µM in [2]; above 100 µM in [3]; above 100 µM in [4]; above 100 µM in [5]; above 100 µM in assay [7].
As for `N.N.N.N.N.O=S(=O)([O-])C(F)(F)F.O=S(=O)([O-])C(F)(F)F.[Os+8]`, the GI50 in assay [1] was 6.89 µM; in [2] it was 10.9 µM; in assay [3] it was 6.34 µM; in [4] it was 14.2 µM; in assay [6] it was 8.7 µM. The TGI in assay [1] was 40.6 µM; in assay [2], 25.4 µM; in assay [3] it was 20 µM; in assay [4], 28.7 µM; in assay [6] it was above 100 µM.
On to `CCN(CC)CCCC(C)Nc1c(Sc2cnc3cc(Cl)ccc3c2NC(C)CCCN(CC)CC)cnc2cc(Cl)ccc12` (configuration not stated), for which the TGI in [1] came out at 5.21 µM; in assay [2], 2.88 µM; in [4] it was 3.29 µM; in assay [5] it was 3.15 µM; in assay [6], 4.55 µM.
Regarding `CC1=NN(C(=O)c2ccc(Cl)cc2)C(=O)/C1=C/c1ccc(Cl)cc1`, the TGI in [1], in assay [2], in assay [3], in assay [4], in assay [5] and in [6] was above 100 µM in each case. This molecule also displayed a TGI in assay [7] above 100 µM.
For the molecule `CCCCc1c2c(nc3c1CCc1cc4cc5c(nc4nc1-3)-c1nc3c(c(CCCC)c1CC5)CCC/C3=C\c1ccccc1)/C(=C/c1ccccc1)CCC2`, the TGI in assay [1], in [2], in [3], in assay [4], in assay [5] and in [6] was above 100 µM throughout. The molecule further showed a TGI in assay [7] above 100 µM.
With `C#C[C@H]1CCCCCC1O` (some centres not stated), the TGI in assay [1], in [2], in assay [3], in [4], in assay [5] and in assay [7] was above 100 µM each time.
On to `CC(=O)Nc1ccc(C(=O)NN2C(=O)C(Cl)C2c2ccc(O)cc2)cc1` (configuration not stated), for which the TGI in assay [1], in [2], in [3], in assay [4], in assay [5] and in assay [7] was above 100 µM each time.
`COC1(C)C(=O)N2C1N(C(=O)OCc1ccccc1)CC2(C)C` (configuration not stated): the TGI in assay [1], in assay [2], in assay [3], in assay [4], in [6] and in [7] was above 100 µM each time.
With `COc1ccc(-c2onc(-c3c(C)cc(C)cc3C)c2C2=NCCN2)cc1`, the TGI in assay [1] is above 100 µM; in assay [2] it was 49 µM; in assay [3], above 100 µM; in [4], 35.8 µM; in assay [6], above 100 µM; in assay [7], above 100 µM.
As for `CC(=O)NNc1nc(C)c(C(=O)/C=C/c2ccc(/C=C/C(=O)c3sc(NNC(C)=O)nc3C)cc2)s1`, the TGI in assay [1], in assay [2], in assay [3], in assay [4], in assay [5] and in assay [7] was above 100 µM each time.
With `Nc1cc2cccc[n+]2c2cccc(Cl)c12`, the GI50 was 12 µM in assay [1]; 15.5 µM in [2]; 21.9 µM in assay [8]; 36.4 µM in assay [4]; 25.8 µM in assay [9]; 16.2 µM in [5]. The GI50 in assay [6] is 21.3 µM; in [7], 12.7 µM. Also, the TGI in assay [1] was 94.4 µM; in [8], 60.2 µM; in [9], 72.2 µM; in assay [5] it was 78 µM; in [7] it was 84.1 µM.
`O=C(COc1ccc(Cl)cc1)N1CCN(C(=O)COc2ccc(Cl)cc2)c2ccccc21`: the TGI in assay [1], in assay [2], in [3], in assay [5] and in [6] was above 100 µM in each case.
As to `Nc1ccc(C(=O)NN2C(=O)C(Cl)C2c2cccc(O)c2)cc1` (configuration not stated), the TGI in assay [1] was 28.9 µM; in assay [2], 34.6 µM; in [3], 30.7 µM; in assay [4] it was 35.2 µM; in assay [5], 3.29 µM; in [6], 41.7 µM. The molecule further had a TGI in assay [7] of 30.5 µM.
On to `COc1ccc2c(c1)C(=O)c1c-2n(CCCN)c(=O)c2cc([N+](=O)[O-])ccc12`, for which the GI50 in assay [1] is below 0.01 µM; in assay [3], below 0.01 µM; in assay [8] it was 1.81 µM; in assay [4], below 0.01 µM; in assay [9], 3.3 µM; in [5] it was below 0.01 µM. The GI50 in assay [6] and in [7] was below 0.01 µM each time. Moreover, the TGI in [1] was below 0.01 µM; in assay [3], 0.0234 µM; in assay [8], 4.44 µM; in assay [4], below 0.01 µM; in assay [9], 19.5 µM; in [5], 2.91 µM. The results for the TGI in [6] and in assay [7] were below 0.0222 µM and 2.13 µM, respectively.
As for `O=C(CCc1nc(=S)[nH][nH]1)Nc1cccc(C(F)(F)F)c1`, the TGI in assay [1], in assay [2], in [3], in assay [4], in assay [5] and in assay [6] was above 100 µM in each case. The TGI in assay [7] is above 100 µM.
For `CCC[CH2][Sn]([CH2]CCC)([O]C(=O)/C=C/c1ccccc1F)[O]C(=O)/C=C/c1ccccc1F`, the GI50 in assay [1] is 0.139 µM; in [2], 0.907 µM; in [3], 2.12 µM; in assay [4], 0.873 µM; in assay [5], 0.0798 µM; in assay [6] it was 0.222 µM. Also, the GI50 in assay [7] is 0.788 µM. For the same molecule, the TGI in [1] stood at 0.616 µM; in assay [2], 2.41 µM; in assay [3], 4.71 µM; in assay [4], 2.22 µM; in [5], 0.185 µM; in [6], 1.2 µM. In addition, the TGI in assay [7] amounted to 2.07 µM.
As to `CCCCCCCCCCCCCP(=O)(NCC(N)=O)OCC` (configuration not stated), the TGI worked out at 47.7 µM in assay [1]; 34 µM in [2]; 32 µM in assay [3]; 30.6 µM in assay [4]; 34.3 µM in assay [7].
On to `Cc1nc2c(sc(=S)n2-c2ccccc2)c2nc3ccccc3n12`, for which the TGI in [1], in assay [2], in assay [3], in assay [4], in assay [5] and in assay [6] was above 100 µM in each case. Further, the TGI in assay [7] is above 100 µM.
As for `COc1cc2c(c(OC)c1OC)-c1c(cc3c(c1OC)OCO3)CC(C)C(C)(O)C2OC(=O)c1ccccc1` (configuration not stated), the TGI is 63.9 µM in assay [1]; 53.5 µM in assay [2]; above 100 µM in assay [3]; above 100 µM in [8]; above 100 µM in assay [4]; above 100 µM in assay [9]. Further, the TGI in [5] is above 100 µM; in assay [6] it was 79.3 µM; in assay [7], above 100 µM.
Turning to `O=C(NCC(=O)N1CCOC1=O)OCc1ccccc1`, the TGI in assay [1], in [2], in assay [3], in assay [4], in assay [5] and in assay [6] was above 100 µM in each case. Besides, in assay [7], the TGI is above 100 µM.
As to `Cc1ccc(NC(=O)CC2SC(N)=NC2=O)cc1C` (configuration not stated), the TGI in [2], in assay [3], in assay [4], in assay [5], in assay [6] and in [7] was above 100 µM in each case.
As to `O=c1c(-c2ccccc2)coc2cc(OC/C(=N/O)c3ccc(F)cc3)ccc12`, the GI50 was 26 µM in [1]; 18.9 µM in [2]; 27 µM in assay [3]; 17.5 µM in assay [4]; 20.9 µM in assay [9]; 14.5 µM in assay [5]. For the same molecule, the GI50 is 23.9 µM in [10], 18.8 µM in assay [6] and 18.7 µM in assay [7]. Further, the TGI in assay [1] is above 100 µM; in assay [2], 50.7 µM; in assay [3], 53.5 µM; in assay [4], 41.3 µM; in assay [9], 97.7 µM; in assay [5], 46 µM. For the same molecule, the TGI in assay [10] stood at 62.3 µM; in [6] it was 59.7 µM; in assay [7], 53.5 µM.
`O=C(O)COc1ccc(C(=O)/C(SS/C(C(=O)c2ccc(OCC(=O)O)c(Cl)c2Cl)=C2\C=C(c3ccc(Br)cc3)SS2)=C2/C=C(c3ccc(Br)cc3)SS2)c(Cl)c1Cl`: the TGI in [1] was 17 µM; in [2], 14.9 µM; in assay [3], 54.1 µM; in [8], 17.4 µM; in [4], above 91.6 µM; in [9], above 100 µM. Besides, the TGI is 3.95 µM in assay [5], 18.2 µM in assay [6] and 33.1 µM in assay [7].
With `Nc1ccc(C(=O)N/C(=C\c2cccc([N+](=O)[O-])c2)c2nc3ccc(Cl)cc3[nH]2)cc1`, the TGI in assay [1], in [2], in [4], in [5] and in assay [7] was above 100 µM each time.
